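These data come from cells grown in 96-well plates and exposed to compound for 48 hours at five concentrations. GI50 is the concentration that inhibits growth by half. TGI denotes the concentration required for complete inhibition of growth.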
Legend:
Experiment in all cases: inhibition of tumour cell growth, NCI panel, 48 h
[1] = tested on: 786-0 renal
[2] = tested on: A498 renal
[3] = tested on: A549 NSCLC
[4] = tested on: ACHN renal
[5] = tested on: BT-549 breast
[6] = tested on: CAKI-1 renal
[7] = tested on: CCRF-CEM leukemia
[8] = tested on: COLO 205 colon
[9] = tested on: DU-145 prostate
[10] = tested on: EKVX NSCLC
[11] = tested on: HCC-2998 colon
[12] = tested on: HCT-116 colon
[13] = tested on: HCT-15 colon
[14] = tested on: HL-60(TB) leukemia
[15] = tested on: HOP-62 NSCLC
[16] = tested on: HOP-92 NSCLC
[17] = tested on: HS 578T breast
[18] = tested on: HT29 colon
[19] = tested on: IGROV1 ovarian
[20] = tested on: K-562 leukemia
[21] = tested on: KM12 colon
[22] = tested on: LOX IMVI melanoma
[23] = tested on: M14 melanoma
[24] = tested on: MALME-3M melanoma
[25] = tested on: MCF7 breast
[26] = tested on: MDA-MB-231 breast
[27] = tested on: MDA-MB-435
[28] = tested on: MOLT-4 leukemia
[29] = tested on: NCI-H226 lung
[30] = tested on: NCI-H23 lung
[31] = tested on: NCI-H460 lung
[32] = tested on: NCI-H522 lung
[33] = tested on: NCI/ADR-RES ovarian
[34] = tested on: OVCAR-3 ovarian
[35] = tested on: OVCAR-4 ovarian
[36] = tested on: OVCAR-5 ovarian
[37] = tested on: OVCAR-8 ovarian
[38] = tested on: PC-3 prostate
[39] = tested on: RPMI-8226 leukemia
[40] = tested on: RXF 393 renal
[41] = tested on: SF-268 CNS
[42] = tested on: SF-295 CNS
[43] = tested on: SF-539 CNS
[44] = tested on: SK-MEL-2 melanoma
[45] = tested on: SK-MEL-28 melanoma
[46] = tested on: SK-MEL-5 melanoma
[47] = tested on: SK-OV-3 ovarian
[48] = tested on: SN12C renal
[49] = tested on: SNB-19 CNS
[50] = tested on: SNB-75 CNS
[51] = tested on: SR leukemia
[52] = tested on: SW-620 colon
[53] = tested on: T-47D breast
[54] = tested on: TK-10 renal
[55] = tested on: U251 CNS
[56] = tested on: UACC-257 melanoma
[57] = tested on: UACC-62 melanoma
[58] = tested on: UO-31 renal

## NC(=O)c1c(NC(=O)c2ccc(C(F)(F)F)cc2)sc2c1CCC(=O)C2
[1]
  GI50: 3910 nM
  TGI: 32000 nM
[2]
  GI50: 5060 nM
  TGI: 19200 nM
[3]
  GI50: 3120 nM
  TGI: 15400 nM
[4]
  GI50: 1250 nM
  TGI: 2530 nM
[5]
  GI50: 569 nM
  TGI: 7210 nM
[6]
  GI50: 750 nM
  TGI: 2430 nM
[7]
  GI50: 266 nM
  TGI: 14000 nM
[8]
  GI50: 1550 nM
  TGI: 3930 nM
[9]
  GI50: 4810 nM
  TGI: > 100000 nM
[10]
  GI50: 2420 nM
  TGI: 8580 nM
[11]
  GI50: 2490 nM
  TGI: 6950 nM
[12]
  GI50: 369 nM
  TGI: 3550 nM
[13]
  GI50: 699 nM
  TGI: 2810 nM
[14]
  GI50: 1350 nM
  TGI: 8060 nM
[15]
  GI50: 3550 nM
  TGI: 17600 nM
[16]
  GI50: 726 nM
  TGI: 3470 nM
[17]
  GI50: 1890 nM
  TGI: 19300 nM
[18]
  GI50: 1070 nM
  TGI: 5260 nM
[19]
  GI50: 1230 nM
  TGI: 4350 nM
[20]
  GI50: 300 nM
  TGI: > 41300 nM
[21]
  GI50: 1720 nM
  TGI: 7180 nM
[22]
  GI50: 391 nM
  TGI: 2240 nM
[23]
  GI50: 1860 nM
  TGI: 4560 nM
[24]
  GI50: 1080 nM
  TGI: 3100 nM
[25]
  GI50: 1370 nM
  TGI: 10100 nM
[26]
  GI50: 1020 nM
  TGI: 3980 nM
[27]
  GI50: 1950 nM
  TGI: 4750 nM
[28]
  GI50: 1070 nM
  TGI: 8320 nM
[29]
  GI50: 2040 nM
  TGI: 4980 nM
[30]
  GI50: 887 nM
  TGI: 9090 nM
[31]
  GI50: 3350 nM
  TGI: 12800 nM
[32]
  GI50: 613 nM
  TGI: 2390 nM
[33]
  GI50: 1480 nM
  TGI: 7490 nM
[34]
  GI50: 575 nM
  TGI: 2470 nM
[35]
  GI50: 1940 nM
  TGI: 4830 nM
[36]
  GI50: 1890 nM
  TGI: 6080 nM
[37]
  GI50: 1850 nM
  TGI: 25000 nM
[38]
  GI50: 316 nM
  TGI: 1860 nM
[39]
  GI50: 279 nM
  TGI: 1260 nM
[40]
  GI50: 874 nM
  TGI: 4240 nM
[41]
  GI50: 1480 nM
  TGI: 14400 nM
[42]
  GI50: 2170 nM
  TGI: 6010 nM
[43]
  GI50: 500 nM
  TGI: 1810 nM
[44]
  GI50: 3210 nM
  TGI: 11100 nM
[45]
  GI50: 1140 nM
  TGI: 2820 nM
[46]
  GI50: 1730 nM
  TGI: 3320 nM
[47]
  GI50: 3030 nM
  TGI: > 28600 nM
[48]
  GI50: 2230 nM
  TGI: 13200 nM
[49]
  GI50: 1310 nM
  TGI: 9920 nM
[50]
  GI50: 1790 nM
  TGI: 5950 nM
[51]
  GI50: 393 nM
  TGI: > 100000 nM
[52]
  GI50: 379 nM
  TGI: 1960 nM
[53]
  GI50: 545 nM
  TGI: 3340 nM
[54]
  GI50: 1660 nM
  TGI: 11200 nM
[55]
  GI50: 426 nM
  TGI: 4670 nM
[56]
  GI50: 1980 nM
  TGI: 5900 nM
[57]
  GI50: 758 nM
  TGI: 2350 nM
[58]
  GI50: 645 nM
  TGI: 1900 nM
